This is an account of results in publication PMC9254107, “The Toxoplasma glucan phosphatase TgLaforin utilizes a distinct functional mechanism that can be exploited by therapeutic inhibitors” (The Journal of Biological Chemistry, 2022).

The target in one test is VHR (Homo sapiens, UniProt P51452). As to the kind of experiment: Library screening at 10 μM. The following applies: read-out: inhibition of VHR.
The next test has as its target T1, PTP1B (Homo sapiens, UniProt P18031).
T1 sequence (P18031 1-435): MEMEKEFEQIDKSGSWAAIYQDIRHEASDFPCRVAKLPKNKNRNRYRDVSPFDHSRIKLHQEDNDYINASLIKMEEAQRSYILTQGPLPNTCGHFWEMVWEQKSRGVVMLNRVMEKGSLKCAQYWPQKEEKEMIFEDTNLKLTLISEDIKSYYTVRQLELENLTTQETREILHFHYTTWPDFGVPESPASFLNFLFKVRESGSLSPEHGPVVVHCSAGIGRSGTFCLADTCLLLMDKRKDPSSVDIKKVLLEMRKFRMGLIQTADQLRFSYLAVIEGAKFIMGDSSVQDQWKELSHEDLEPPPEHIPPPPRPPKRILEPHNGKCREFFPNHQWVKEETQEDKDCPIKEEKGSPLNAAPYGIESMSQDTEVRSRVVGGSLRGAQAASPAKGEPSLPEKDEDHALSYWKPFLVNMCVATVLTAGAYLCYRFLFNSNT
As to the kind of experiment: Library screening at 10 μM. The following applies: read-out: inhibition of PTP1B.

For test [1], the target named is T2, TgLaforin (Toxoplasma gondii, UniProt S8F2K7).
T2 sequence (S8F2K7 1-523): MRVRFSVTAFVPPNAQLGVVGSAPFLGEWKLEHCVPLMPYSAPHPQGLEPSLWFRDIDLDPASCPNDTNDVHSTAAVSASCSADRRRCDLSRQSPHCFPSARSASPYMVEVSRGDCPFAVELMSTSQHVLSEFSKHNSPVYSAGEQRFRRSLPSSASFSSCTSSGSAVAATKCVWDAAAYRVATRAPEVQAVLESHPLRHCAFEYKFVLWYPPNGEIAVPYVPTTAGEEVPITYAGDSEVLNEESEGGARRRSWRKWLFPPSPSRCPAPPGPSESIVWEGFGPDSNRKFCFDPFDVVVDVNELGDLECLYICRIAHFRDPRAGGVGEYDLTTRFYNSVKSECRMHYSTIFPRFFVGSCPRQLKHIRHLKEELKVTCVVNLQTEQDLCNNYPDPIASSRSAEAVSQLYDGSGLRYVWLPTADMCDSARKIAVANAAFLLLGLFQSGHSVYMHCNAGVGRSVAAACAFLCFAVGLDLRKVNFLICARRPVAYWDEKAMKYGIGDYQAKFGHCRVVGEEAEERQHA
As to the kind of experiment: Radiolabeled (33P) starch phosphatase assay. The test is classed as biochemical. The note with it: 33P-labeled insoluble starch. Here is the method: Position-dependent phosphate release from ^33P-labeled starch was performed as previously described ([36], [41], [42], [43]). The substrate for this assay was generated by phosphorylating phosphate-free Arabidopsis sex1-3 starch with β^33P-labeled ATP (Hartmann Analytic) at the C6 and C3 positions sequentially. The starch granules were phosphorylated at the C6 position using purified recombinant StGWD enzyme. Next, the granules were phosphorylated at the C3 position using purified recombinant AtPWD enzyme.
To determine the site-specificity of TgLaforin, TgLaforin (1.3 nM) was incubated separately with 0.6 mg both C6- and C3-^33P-labeled starch in phosphatase buffer (pH 6.5) containing 1 mg/ml bovine serum albumin in a final volume of 150 μl. […] The amount of phosphate released from each starch suspension was quantified by measuring counts per minute (CPM) of the supernatant on a 1900 TR liquid scintillation counter (Packard). […]
(§1) L319-M21-M49 stock solutions were prepared by resuspending the inhibitor in DMSO at a concentration of 20 mM. […] The efficacy of L319-M21-M49 against various phosphatases was determined using the assay conditions described above. […] All reported uncertainties in IC50 values were calculated and presented as standard deviation from the mean of at least three independent replicates, each consisting of three technical replicates. […]

Test [2] concerns the target T2, TgLaforin. As to the kind of experiment: pNPP phosphatase assay.
For test [3], the target named is T2, TgLaforin. In words: Malachite green phosphatase assay, phosphate release from solubilized potato amylopectin. The test is classed as biochemical. Here is the method: Release of phosphate from potato amylopectin was determined as done previously ([23], [24], [42], [93]) with the following modifications. Briefly, phosphate release was monitored using the PiColorLock Phosphate Detection Reagent (Novus Biologicals), a malachite green–based assay. For time course assays, 5 nM recombinant protein was incubated with 90 μg solubilized potato amylopectin (Sigma-Aldrich), supplied as a powder; solubilized at a stock concentration of 5 mg/ml using alcohol/alkaline method (also referred to as the “Roach method” in Ref. ([93])) in phosphatase buffer in a final volume of 80 μl at pH 6.5. […] After 5 min, 8 μl stabilizer solution (0.1 initial reaction volume) was added, and reaction was allowed to develop for 30 min at r.t. before the absorbance of each reaction was measured at 635 nm using a Synergy HTX Multi-Mode Reader (BioTek). Absorbance was converted to pmol Pi release using a Pi absorbance standard curve. […]
as §1

Test [4] deals with T2, TgLaforin. In words: Library screening at 10 μM. In kind it is biochemical.
For another test, the target named is TgCBM (Toxoplasma gondii, UniProt S8F2K7). As to the kind of experiment: Differential scanning fluorimetry carbohydrate binding. On the procedure: We next analyzed TgCBM using size-exclusion chromatography coupled with multiangle light scattering (SEC-MALS) to define its oligomerization state. […] To define TgCBM carbohydrate binding, we utilized differential scanning fluorimetry (DSF) ([53], [54]). In the presence of a carbohydrate, an increase in Tm is associated with increased protein stability due to protein–ligand interaction. We incubated TgCBM with the linear oligosaccharide maltohexaose and observed a robust dose-dependent stabilization of TgCBM with an Kd,app = 20 ± 4 mM (Fig. 3E).
A general note: Differential scanning fluorimetry follows unfolding on heating by fluorescence.

The next test deals with TgCBM K206A. Described as above. The following applies: DSF.
The next test deals with TgCBM W278A. The test is described as above. The following applies: DSF.

As usually defined, the inhibition is the share of the control response that was lost under treatment. As usually defined, the IC50 is the concentration that inhibits the measured activity by half. By Kd is commonly meant the equilibrium constant for the complex coming apart. A higher Kd goes with lower affinity.

Sequence of VHR (P51452 whole entry, species assumed): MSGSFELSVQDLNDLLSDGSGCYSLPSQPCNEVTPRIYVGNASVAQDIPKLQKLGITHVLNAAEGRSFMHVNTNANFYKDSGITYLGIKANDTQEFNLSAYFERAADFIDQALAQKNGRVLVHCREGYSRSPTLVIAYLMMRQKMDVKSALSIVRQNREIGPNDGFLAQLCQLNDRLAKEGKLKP

As to `O=C(Nc1ccc(Oc2ccccc2)cc1)C(=O)Nc1ccccc1NC(=O)C(c1ccccc1)S(=O)(=O)O` (stereo not drawn) [L319-21-M49, 2-oxo-2-((2-(2-oxo-2-((4-phenoxyphenyl)amino)acetamido)phenyl)amino)-1-phenylethanesulfonic acid], the results for the inhibition at 10 µM at VHR, at PTP1B and against TgLaforin [4] were less than 10%, less than 10% and more than 90%, respectively. Besides, the IC50 came to 6.7 ± 0.1 µM on TgLaforin [1] (C3, read-out: IC50 phosphate release from C3 position of starch); 6.5 ± 1.4 µM at TgLaforin [1] (C6, read-out: IC50 phosphate release from C6 position of starch); 1.5 ± 0.3 µM against TgLaforin [2]; 5.1 ± 0.4 µM at TgLaforin [3]. Further, the “specificity for TgLaforin over other phosphatases” value at TgLaforin [2] (pNPP assay, other phosphatases VHR, PTP1B, CIP) was more than 100 fold. In addition, the “mechanism of inhibition (Lineweaver-Burk plot)” value at TgLaforin [2] (pNPP substrate) is given as “competitive inhibitor”.
For `OC[C@H]1O[C@H](O[C@H]2[C@H](O)[C@@H](O)[C@@H](O[C@H]3[C@H](O)[C@@H](O)[C@@H](O[C@H]4[C@H](O)[C@@H](O)[C@@H](O[C@H]5[C@H](O)[C@@H](O)[C@@H](O[C@H]6[C@H](O)[C@@H](O)C(O)O[C@@H]6CO)O[C@@H]5CO)O[C@@H]4CO)O[C@@H]3CO)O[C@@H]2CO)[C@H](O)[C@@H](O)[C@@H]1O` (stereo partly drawn) [maltohexaose], the Kd on TgCBM was determined as 20000 ± 4000 µM. Moreover, in the test with TgCBM K206A, the “binding to K206A mutant” value was “neither mutant was able to bind”. In addition, the “binding to W278A mutant” value in the test with TgCBM W278A is given as “neither mutant was able to bind”.
